The values that follow come from US6479482B2, “Alkylamine derivatives of dihydropyridine NPY antagonists” (Bristol-Myers Squibb Company, priority 2000, dated 2002).

The structures appear in SMILES notation.

The subject of series [1] is NPY-induced pressor response. Conditions: pithed rat; cited from earlier work.
Series [2] concerns the target T1, I-125 Bolton-Hunter labeled NPY in human neuroblastoma cells (SK-N-MC) (Homo sapiens, UniProt P25929).
T1 construct: displaces I-125 Bolton-Hunter labeled NPY in human neuroblastoma cells (SK-N-MC); endogenous in cells; host or cells: SK-N-MC human neuroblastoma cells
T1 sequence (P25929 1-384): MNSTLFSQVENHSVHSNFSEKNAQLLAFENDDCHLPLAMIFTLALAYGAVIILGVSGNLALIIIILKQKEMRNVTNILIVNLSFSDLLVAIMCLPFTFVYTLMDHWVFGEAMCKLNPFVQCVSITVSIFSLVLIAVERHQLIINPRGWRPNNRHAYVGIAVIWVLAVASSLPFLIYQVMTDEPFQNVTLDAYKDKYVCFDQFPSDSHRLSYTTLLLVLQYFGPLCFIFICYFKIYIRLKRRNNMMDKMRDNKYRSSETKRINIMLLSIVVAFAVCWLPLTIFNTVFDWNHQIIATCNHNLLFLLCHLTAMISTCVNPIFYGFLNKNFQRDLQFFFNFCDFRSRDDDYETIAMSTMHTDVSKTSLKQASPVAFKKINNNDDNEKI
The settings on record: cited from earlier work.

In series [3] the test system is NPY-induced increase in intracellular Ca^++ in SK-N-MC cells. The settings on record: cited from earlier work.
The test system of series [4] is NPY-related increases in diastolic blood pressure. The settings on record: anesthetized guinea pig; cited from earlier work.
In series [5] the target is T2, I-125 labeled NPY and PYY in human neuroblastoma cells (Homo sapiens, UniProt P25929).
T2 construct: displacing I-125 labeled NPY and PYY in human neuroblastoma cells; endogenous in cells
T2 sequence (P25929 1-384): T1 sequence (P25929 1-384)
Conditions: cited from earlier work.

Series [6] has as its system NPY-induced contractions in guinea pig basilar artery. The settings on record: cited from earlier work.
The test system of series [7] is NPY-induced Ca^++ entry in HEL cells. The settings on record: cited from earlier work.

Turning to `COC(=O)C1=C(C)NC(C)=C(C(=O)OC)C1c1cccc(NC(=O)NCCCN2CCN(C3CCCC3)CC2)c1.Cl.Cl`, the melting point (usually the temperature, or range, at which the solid turns liquid) is 195 to 200 °C.

In the case of `CCCN1CCN(CCCNC(=O)Nc2cccc(C3C(C(=O)OC)=C(C)NC(C)=C3C(=O)OC)c2)CC1.Cl.Cl`, the melting point fell in the range of 190 to 200 °C.

In the case of `COC(=O)C1=C(C)NC(C)=C(C(=O)OC)C1c1cccc(NC(=O)NCCCN2CCC(=O)CC2)c1.Cl`, the melting point lay within 70 to 75 °C.

Molecule `COC(=O)C1=C(C)NC(C)=C(C(=O)OC)C1c1cccc(NC(=O)NCCCN2CCN(CC(C)C)CC2)c1.Cl.Cl` displayed a melting point of 165 to 170 °C.

`COC(=O)C1=C(C)NC(C)=C(C(=O)OC)C1c1ccc(F)c(NC(=O)NCCCN2CCC(C(C)(C)C)CC2)c1` [Example 21, 4-[4-Fluoro-3-[[[[3-[4-(1,1-dimethylethyl)-1-piperidinyl]propyl]amino]-carbonyl]amino]phenyl]-1,4-dihydro-2,6-dimethyl-3,5-pyridinedicarboxylic acid, dimethyl ester] returned a melting point of 191 to 193 °C.

The molecule `COC(=O)C1=C(C)NC(C)=C(C(=O)OC)C1c1ccc(F)c(NC(=O)NCCCN2CCC(C)CC2)c1` [Example 17, 4-[4-Fluoro-3-[[[[3-(4-methyl-1-piperidinyl)propyl]amino]carbonyl]-amino]phenyl]-1,4-dihydro-2,6-dimethyl-3,5-pyridinedicarboxylic acid, dimethyl ester] registered a melting point of 188 to 190 °C.

With `CCCCN1CCN(CCCNC(=O)Nc2cccc(C3C(C(=O)OC)=C(C)NC(C)=C3C(=O)OC)c2)CC1.Cl.Cl`, the melting point lay within 145 to 150 °C.

Regarding `NC(N)=NCCC[C@@H](NC(=O)C(c1ccccc1)c1ccccc1)C(=O)NCc1ccc(O)cc1` [BIBP 3226], the “antagonism of NPY-induced pressor response” value in series [1] is on record as “antagonizing”. Moreover, the “displacement of I-125 Bolton-Hunter labeled NPY” value in series [2] is “displaces”. Besides, in series [3], the “antagonism of NPY-induced increase in intracellular Ca++” value is listed as “antagonized”.

For the molecule `CN(C)CC1CCC(CN=C(N)c2ccc(C[C@@H](NC(=O)[C@@H](Cc3ccccc3)NS(=O)(=O)c3ccc4ccccc4c3)C(=O)N3CCCC3)cc2)CC1` (stereo partly shown) [SR 120819A], in series [4], the “antagonism of NPY-related increases in diastolic blood pressure” value is reported as “antagonized”. The “displacement of I-125 labeled NPY and PYY” value in series [5] was “displacing”.

Molecule `COC(=O)C1=C(C)NC(C)=C(C(=O)OC)C1c1cccc(NC(=O)NCCCN2CCNCC2)c1.Cl.Cl` had a melting point of 120 to 130 °C.

`COC(=O)C1=C(C)NC(C)=C(C(=O)OC)C1c1cccc(NC(=O)NCCCN2CCN(C(=O)OC(C)(C)C)CC2)c1` [Example 13, 4-[3-[[[[3-[4-[(1,1-Dimethylethoxy)carbonyl]-1-piperazinyl]propyl]amino]-carbonyl]amino]phenyl]-1,4-dihydro-2,6-dimethyl-3,5-pyridinedicarboxylic acid, dimethyl ester] had a melting point of 125 to 130 °C.

In turn, `COC(=O)C1=C(C)NC(C)=C(C(=O)OC)C1c1cccc(NC(=O)NCCCN2CCN(CC3CC3)CC2)c1.Cl.Cl` registered a melting point of 145 to 150 °C.

As for `COC(=O)C1=C(C)NC(C)=C(C(=O)OC)C1c1cccc(NC(=O)NCCCN2CCN(C(C)C)CC2)c1.Cl.Cl`, the melting point was 170 to 180 °C.

With `CCN1CCN(CCCNC(=O)Nc2cccc(C3C(C(=O)OC)=C(C)NC(C)=C3C(=O)OC)c2)CC1.Cl.Cl`, the melting point was in the range of 120 to 125 °C.

The molecule `COC(=O)C1=C(C)NC(C)=C(C(=O)OC)C1c1cccc(NC(=O)NCCCN2CCN(C(C)(C)C)CC2)c1.Cl.Cl` displayed a melting point of 175 to 180 °C.

In the case of `O=P(O)(O)OC1[C@H](OP(=O)(O)O)[C@H](O)C(O)[C@H](O)[C@H]1OP(=O)(O)O` (stereo partly drawn) [D-Myo-inositol-1,2,6-triphosphate], the “antagonism of NPY-induced contractions” value in series [6] is “potent but non-competitive antagonist”.

Turning to `COC(=O)C1=C(C)NC(C)=C(C(=O)OC)C1c1ccc(F)c(NC(=O)NCCCN2CCC(C(C)C)CC2)c1` [Example 20, 4-[4-Fluoro-3-[[[[3-[4-(1-methylethyl)-1-piperidinyl]propyl]amino]-carbonyl]amino]phenyl]-1,4-dihydro-2,6-dimethyl-3,5-pyridinedicarboxylic acid, dimethyl ester], the melting point is 176 to 179 °C.

As to `N=C(NCCCc1cnc[nH]1)NCCC(c1cc(F)cc(F)c1)c1ccccn1` (stereo not shown) [He 90481], in series [7], the “pA2, antagonism of NPY-induced Ca++ entry” value was 4.43.

`COC(=O)C1=C(C)NC(C)=C(C(=O)OC)C1c1cccc(NC(=O)NCCCN2CCC3(CC2)OCCO3)c1` [Example 14, 4-[3-[[[[3-(1,4-Dioxa-8-azaspiro[4.5]decan-8-yl)propyl]amino]carbonyl]-amino]phenyl]-1,4-dihydro-2,6-dimethyl-3,5-pyridinedicarboxylic acid, dimethyl ester] showed a melting point of 100 to 105 °C.
